In US10106532B2, “Inhibitors of beta-hydroxylase for treatment of cancer” (MIDWESTERN UNIVERSITY, priority 2012, dated 2018):
“Also recorded” adds a separate entry of the source.

How the values were obtained:
ASPH = molecular target: T1, ASPH (Homo sapiens, UniProt Q12797); test: binding to ASPH by isothermal titration calorimetry
T1 sequence (Q12797 1-758): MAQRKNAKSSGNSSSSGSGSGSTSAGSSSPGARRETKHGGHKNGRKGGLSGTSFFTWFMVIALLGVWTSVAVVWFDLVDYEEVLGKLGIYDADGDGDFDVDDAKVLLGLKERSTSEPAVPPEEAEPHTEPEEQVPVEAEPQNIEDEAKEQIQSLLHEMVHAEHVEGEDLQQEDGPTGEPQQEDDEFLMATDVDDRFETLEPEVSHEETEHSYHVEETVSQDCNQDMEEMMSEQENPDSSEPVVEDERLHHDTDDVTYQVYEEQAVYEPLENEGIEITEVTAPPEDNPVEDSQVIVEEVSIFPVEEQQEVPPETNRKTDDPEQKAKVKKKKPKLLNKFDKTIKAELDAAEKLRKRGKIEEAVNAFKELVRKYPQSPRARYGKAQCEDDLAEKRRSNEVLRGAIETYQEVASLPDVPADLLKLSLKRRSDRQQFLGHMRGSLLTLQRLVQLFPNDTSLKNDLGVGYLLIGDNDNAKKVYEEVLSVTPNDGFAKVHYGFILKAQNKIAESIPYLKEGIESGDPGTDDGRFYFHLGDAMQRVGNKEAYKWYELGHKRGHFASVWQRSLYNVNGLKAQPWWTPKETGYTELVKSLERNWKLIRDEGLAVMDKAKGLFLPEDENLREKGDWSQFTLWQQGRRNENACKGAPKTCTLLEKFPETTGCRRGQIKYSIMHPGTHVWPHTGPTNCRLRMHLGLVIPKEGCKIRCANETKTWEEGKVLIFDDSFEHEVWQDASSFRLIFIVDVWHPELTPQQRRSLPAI
Text: In the second step arylhydroxytetronimide was sulfonylated with phenylmethansulfonyl chloride in dry tetrahydrofuran to yield compounds of formula 1 (shown below). Compounds were characterized by 1H and 13C nuclear magnetic resonance, high resolution mass spectroscopy, high performance liquid chromatography, infra-red spectroscopy, melting point, elemental analysis and binding to ASPH by isothermal titration calorimetry.
Candidate parent compounds were selected as inhibitors for β-hydroxylase activity based on crystal structure of the catalytic site in the C-terminal region of ASPH and computer assisted drug design.

[1] = test system: HPAFH AsPC-1 human PC cell line; test: subcutaneous pancreatic cancer tumor growth in nude mice; type: in vivo
Method: FIG. 4A is a line graph showing tumor volume, and FIG. 4B is a bar graph showing tomor weight. […] There were 15 nude mice in each group. i.p. injection (20 mg/kg/mouse). Vertical bars; standard error.
The HPAFH AsPC-1 human PC cell line which expresses a high level of ASPH was implanted (5×10^6 cells s.c.) into the back of nude mice. Tumors were allowed to grow to approximately 100 mm^3 after one week, and MO-1-1100 was then administered intraperitoneal (i.p.) at a concentration of 50 mg/kg. The treatment regimen as shown in FIGS. 4A-B included i.p. injections on a daily basis for five days followed by every other day until the experiment was terminated due to the large size of tumors observed in the control group that received a DMSO vehicle injection. […] There were 15 nude mice in each group (control vs. treatment).

FOCUS cells [2] = test: MTT assay (cell proliferation, metabolic activity); type: cell-based, human; details: 24 hours
Method: (§1) A MTT assay was performed to evaluate the effect of MO-1-1100 on cell proliferation and viability. MTT is reduced to purple formazan in living cells. FOCUS cells were used as a high ASPH expressing human HCC cell line. […] The MTT assay measures cellular metabolic activity via NAD(P)H-dependent cellular oxidoreductase enzymes. […] In order to evaluate the effect of long-term exposure of MO-1-1100, the colony formation assay (an assay of malignant potential and phenotype) in which cells were treated with inhibitor for 3 weeks was performed.

NIH-3T3 cells = test: MTT assay (cell proliferation, metabolic activity); type: cell-based, mouse
Method: as §1

Huh7 = test: cell viability; type: cell-based, human; details: 5 μM
NIH 3T3 cells = test: cell viability; type: cell-based, mouse; details: 5 μM, NIH 3T3 cells with no expression of ASPH
FOCUS cells [3] = test: invasion assay using matrigel coated membrane; type: cell-based, human; details: 6 hours, compared to DMSO control
Method: The β-hydroxylase activity is required for ASPH to mediate its effects on cell motility. Directional motility was measured using Boyden chamber-type culture inserts equipped with porous membranes. FOCUS cells were pretreated with 5 μM of MO-1-1100 and MO-1-500 β-hydroxylase inhibitor for 24 hours, and then placed into the upper chamber. Migration was allowed to proceed for 30 min. ATPLite was used to quantify viable cell density. The cells in the upper well and upper surface of membrane reflects the number of non-migrating cells, luminescence measured at the bottom surface of the membrane reflects the number of migrating and non-adherent cells and luminescence measured in the bottom well was reflect migrating and non-adherent cells. […] Cell invasiveness was assessed by invasion assay using matrigel coated membrane, in which cells were allowed to proceed for 6 hours; those found adhered on the bottom surface of membrane were regarded as invading cells.

[4] = test system: human HCC cell line FOCUS; test: subcutaneous xenograft of human hepatocellular carcinoma; type: in vivo, mouse; details: 20 mg/kg per day
Method: The human HCC cell line FOCUS is known to be a highly aggressive tumor forming cell line in vivo. To investigate in vivo anti-tumor efficacy of the ASPH inhibitor, MO-1-1100 at 20 mg/kg per day was administered on 5 consecutive days for 2 weeks and every other day thereafter. […] Such findings indicate that any ASPH expressing human tumor are responsive to these specific β-hydroxylase inhibitors. These ASPH inhibitor compounds represent a class of anti-tumor agents that has substantial anti-tumor activity against a large number of solid human tumors known to have a dismal prognosis.

**Q.** Which results are given for `NC1=C(OS(=O)(=O)Cc2ccccc2)C(=O)C(c2ccc(Cl)cc2)O1` (racemic) [MO-1-1100]?
**A.** ASPH binding (ASPH): confirmed to demonstrate ASPH binding; HPAFH tumor formation, growth rate ([1]; i.p. 50 mg/kg, daily for five days followed by every other day): substantial inhibition; PC tumor growth (tumor volume, tumor weight) ([1]; i.p. injection (20 mg/kg/mouse), FIG. 4 legend): anti-tumor effect; OD (optical density) value, MTT (FOCUS cells [2]): dose-dependently decreased; specificity for the β-hydroxylase activity of ASPH (NIH-3T3 cells; FOCUS (express ASPH) versus NIH-3T3 (do not express ASPH)): highly specific; also recorded: more highly specific; OD value of MTT (NIH-3T3 cells; NIH-3T3 cells not expressing ASPH): no effect; also recorded: resistant; cell viability, inhibition rate (Huh7): 50%; decreased cell viability (NIH 3T3 cells): not; invasiveness (FOCUS cells [3]): significantly reduced; also recorded: significantly inhibited; signs of wasting or other adverse effects relative to control mice [4]: None of the MO-1-1100 treated mice showed signs; tolerability [4]: tolerated well; HCC subcutaneous xenograft growth ([4]; 5 consecutive days for 2 weeks and every other day thereafter): significantly reduced; also recorded: strikingly reduces; tumor volumes reduced, average, compared to control mice ([4]; day 12 following treatment): 31.7%
